Laboratory results taken from article PMC2267855, “Site-directed mutagenesis of Arginine282 suggests how protons and peptides are co-transported by rabbit PepT1” (The International Journal of Biochemistry & Cell Biology, 2008).
Substitutions are numbered along the chain they refer to.

Experiments:
Assay type in all cases: cell-based, rabbit
R282E-PepT1 [1] = target: T1, R282E-PepT1 (Oryctolagus cuniculus, UniProt P36836, R282E); assay: Accumulation of [3H]-D-Phe-L-Gln above the extracellular concentration by oocytes expressing R282E-PepT1; details: R282E-PepT1, pHout 7.4, 24 h incubation
T1 construct: expressed in transfected cells; host or cells: Xenopus laevis oocytes injected with cRNA
T1 sequence (P36836 1-707 R282E): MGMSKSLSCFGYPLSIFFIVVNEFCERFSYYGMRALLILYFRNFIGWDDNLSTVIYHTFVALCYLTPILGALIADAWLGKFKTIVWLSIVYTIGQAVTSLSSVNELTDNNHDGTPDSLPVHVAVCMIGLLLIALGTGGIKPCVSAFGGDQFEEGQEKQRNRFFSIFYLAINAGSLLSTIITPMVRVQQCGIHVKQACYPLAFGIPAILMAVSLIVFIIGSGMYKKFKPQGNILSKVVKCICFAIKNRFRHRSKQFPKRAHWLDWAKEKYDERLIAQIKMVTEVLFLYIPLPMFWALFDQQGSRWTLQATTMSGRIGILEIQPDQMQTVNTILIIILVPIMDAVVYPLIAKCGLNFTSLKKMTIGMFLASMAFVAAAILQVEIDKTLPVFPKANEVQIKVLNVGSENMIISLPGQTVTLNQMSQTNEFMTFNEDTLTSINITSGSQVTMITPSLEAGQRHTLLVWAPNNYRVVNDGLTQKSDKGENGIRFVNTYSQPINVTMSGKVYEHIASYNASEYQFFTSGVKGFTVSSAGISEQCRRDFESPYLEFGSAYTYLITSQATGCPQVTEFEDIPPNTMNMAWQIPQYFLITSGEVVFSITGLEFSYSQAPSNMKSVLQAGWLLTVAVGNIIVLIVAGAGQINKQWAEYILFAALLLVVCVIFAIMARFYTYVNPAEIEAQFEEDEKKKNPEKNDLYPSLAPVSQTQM
Method: (§1) Zero-trans uptake of [^3H]-D-Phe-L-Gln (17.4 Ci/mmole, custom synthesised, Cambridge Research Biochemicals, Stockton-on-Tees, UK) was performed as previously described ([Meredith, 2004]). Briefly, 5 oocytes were incubated in 100 μl of uptake medium (95 mM NaCl, 2 mM KCl, 1 mM CaCl2, 0.42 mM MgCl2, 10 mM Tris/Hepes pH 7.4 or Tris/Mes pH 5.5) with tracer (0.4 μM) [^3H]-D-Phe-L-Gln. After incubation, the oocytes were washed sequentially five times in 1 ml of ice-cold 120 mM NaCl solution, lysed individually with 100 μl 2% (w/v) SDS and liquid scintillation counted. As a control non-injected oocytes were also incubated in uptake medium with [^3H]-D-Phe-L-Gln as above.

R282E-PepT1 [2] = target: T1, R282E-PepT1; assay: Apparent charge:peptide stoichiometry (two-electrode voltage clamp current / radiolabelled uptake), R282E-PepT1; details: R282E-PepT1, pHout 5.5, resting membrane potential
Method: Measurements of membrane potential were made by impaling oocytes with a single glass microelectrode (Intra 767 amplifier, WPI, Stevenage, Hertfordshire, UK) perfused in uptake medium (as above) with or without 0.4 μM D-Phe-L-Gln (synthesised in house), 0.6 mM Gly-L-Gln (Sigma, Poole, UK) or 10 mM 4-aminobenzoic acid (4-AMBA, Sigma). Two-electrode voltage clamp (TEVC) was performed by placing oocytes in a 0.1 ml recording chamber and perfusing with uptake solution (pH 5.5 or 7.4) at a rate of 15 ml/min. Oocytes were impaled by two agarose-cushioned microelectrodes filled with 3 M KCl (0.5–2.0 MΩ) and voltage-clamped at −60 mV using a Geneclamp 500B amplifier and PCLAMP 8.1 software (Axon Instruments, CA, USA). The holding potential was stepped from −60 mV over the range of −150 to +50 mV in 10 mV steps, each pulse lasting 100 ms, and returning to −60 mV in between test voltage pulses. Typically traces were filtered at 1 kHz during recording and digitized at 0.5–5 kHz using the DigiData 1200 interface (Axon Instruments, CA, USA). All experiments were carried out at room temperature.
In order to calculate the apparent charge:substrate stoichiometry, the peptide induced current that was measured by two-electrode voltage clamp at the oocyte resting membrane potential was divided by the radiolabelled dipeptide uptake in oocytes from the same preparation. […]

wild-type PepT1 = target: T2, wild-type PepT1 (Oryctolagus cuniculus, UniProt P36836); assay: Accumulation of [3H]-D-Phe-L-Gln above the extracellular concentration by oocytes expressing wild-type PepT1
T2 construct: expressed in transfected cells; host or cells: Xenopus laevis oocytes injected with cRNA
T2 sequence (P36836 1-707): T1 sequence (P36836 1-707 R282E) with E282R
Method: as §1

SMILES: NC(=O)CC[C@H](NC(=O)[C@H](N)Cc1ccccc1)C(=O)O [D-Phe-L-Gln]
- accumulation above extracellular concentration (R282E-PepT1 [1]): 2.3 ± 0.4 -fold
- apparent stoichiometry (charge:peptide), normalised to wild-type 1:1 (R282E-PepT1 [2]): 4
- accumulation above extracellular concentration (wild-type PepT1; third comparison, printed as wild-type PepT1 at pHout 7.4, 8 h incubation): 1.0 ± 0.4
- accumulation above extracellular concentration (wild-type PepT1; third comparison, printed as wild-type PepT1 at pHout 7.4, 24 h incubation): 1.5 ± 0.3
- accumulation above extracellular concentration (wild-type PepT1; wild-type PepT1, pHout 5.5, 8 h incubation): 8.0 ± 1.4
- accumulation above extracellular concentration (wild-type PepT1; wild-type PepT1, pHout 5.5, 24 h incubation): 8.3 ± 1.0
- accumulation above extracellular concentration (wild-type PepT1; wild-type PepT1, pHout 7.4, 8 h incubation): 2.5 ± 0.5
- accumulation above extracellular concentration (wild-type PepT1; wild-type PepT1, pHout 7.4, 24 h incubation): 3.1 ± 0.5 -fold
